According to PubChem BioAssay AID328 (DTP/NCI, 2004):
Where “and” joins values, the source holds several entries; their conditions need not be identical. Equal entries are not always repeated. Toxic doses and inconclusive results are not listed. Rule for the calls: active = survival T/C of 150% or more; inactive = T/C below 125% in these data.

Tested on: BDF1 mice, P388 leukemia ip, median survival T/C
Test: NCI In Vivo Anticancer Drug Screen. Data for tumor model P388 Leukemia (intraperitoneal) in B6D2F1 (BDF1) mice
Conditions: endpoint: median survival time, higher = longer survival
Procedure, shortened: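 Mice carrying the transplantable tumour receive compound or vehicle. Survival is followed in each arm, and the treated measure is divided by the vehicle measure.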

[1] = dose: 50.0 mg/kg/injection, schedule: Q04DX003 (ip), vehicle: saline with Tween-80
[2] = dose: 100.0 mg/kg/injection, schedule: Q04DX003 (ip), vehicle: saline with Tween-80
[3] = dose: 200.0 mg/kg/injection, schedule: Q04DX003 (ip), vehicle: saline with Tween-80
[4] = dose: 400.0 mg/kg/injection, schedule: Q04DX003 (ip), vehicle: saline with Tween-80
[5] = dose: 50.0 mg/kg/injection, schedule: Q01DX009 (ip), vehicle: saline with Tween-80
[6] = dose: 100.0 mg/kg/injection, schedule: Q01DX009 (ip), vehicle: saline with Tween-80
[7] = dose: 400.0 mg/kg/injection, schedule: Q01DX009 (ip), vehicle: saline with Tween-80
[8] = dose: 12.5 mg/kg/injection, schedule: Q01DX009 (ip), vehicle: saline
[9] = dose: 25.0 mg/kg/injection, schedule: Q01DX009 (ip), vehicle: saline
[10] = dose: 6.25 mg/kg/injection, schedule: Q01DX009 (ip), vehicle: Klucel (hydroxypropylcellulose) (HPC)
[11] = dose: 12.5 mg/kg/injection, schedule: Q01DX009 (ip), vehicle: Klucel (hydroxypropylcellulose) (HPC)
[12] = dose: 200.0 mg/kg/injection, schedule: Q01DX009 (ip), vehicle: saline with Tween-80
[13] = dose: 50.0 mg/kg/injection, schedule: Q01DX005 (ip), vehicle: saline with Tween-80
[14] = dose: 100.0 mg/kg/injection, schedule: Q01DX005 (ip), vehicle: saline with Tween-80
[15] = dose: 200.0 mg/kg/injection, schedule: Q01DX005 (ip), vehicle: saline with Tween-80
[16] = dose: 25.0 mg/kg/injection, schedule: Q01DX009 (ip), vehicle: Klucel (hydroxypropylcellulose) (HPC)
[17] = dose: 25.0 mg/kg/injection, schedule: Q04DX003 (ip), vehicle: saline with Tween-80
[18] = dose: 3.12 mg/kg/injection, schedule: Q01DX009 (ip), vehicle: Klucel (hydroxypropylcellulose) (HPC)

Measured: T/C

CCSC(=O)N1c2ccc(C)cc2C=CC1C#N (stereo not drawn)
inactive: dose: 62.5 mg/kg/injection, schedule: Q01DX001 (ip), vehicle: saline with Tween-80 113 % of control | dose: 125.0 mg/kg/injection, schedule: Q01DX001 (ip), vehicle: saline with Tween-80 104 % of control | dose: 250.0 mg/kg/injection, schedule: Q01DX001 (ip), vehicle: saline with Tween-80 122 % of control

COC(=O)C(C#N)Cc1ccccc1Cl (stereo not drawn)
inactive: [1] 101 % of control | [2] 98 % of control | [3] 98 % of control | [4] 97 % of control

C[C@]12C[C@H](O)[C@H]3[C@@H](CCC4=CC(=O)CC[C@@]43C)[C@@H]1CC[C@@H]2C(=O)CO
inactive: dose: 45.0 mg/kg/injection, schedule: Q04DX003 (sc), vehicle: steriod suspending solution 95 % of control | dose: 65.0 mg/kg/injection, schedule: Q04DX003 (sc), vehicle: steriod suspending solution 100 % of control | dose: 200.0 mg/kg/injection, schedule: Q04DX003 (sc), vehicle: steriod suspending solution 115 % of control | dose: 264.0 mg/kg/injection, schedule: Q01DX009 (sc), vehicle: steriod suspending solution 109 % of control | dose: 264.0 mg/kg/injection, schedule: Q04DX003 (sc), vehicle: steriod suspending solution 110 % of control | dose: 400.0 mg/kg/injection, schedule: Q01DX009 (sc), vehicle: steriod suspending solution 122 % of control | dose: 400.0 mg/kg/injection, schedule: Q04DX003 (sc), vehicle: steriod suspending solution 110 % of control

CC(=O)Nc1ccc(S(=O)(=O)F)cc1[N+](=O)[O-]
inactive: dose: 25.0 mg/kg/injection, schedule: Q04DX003 (ip), vehicle: saline 100 % of control | dose: 50.0 mg/kg/injection, schedule: Q04DX003 (ip), vehicle: saline 100 % of control | dose: 100.0 mg/kg/injection, schedule: Q04DX003 (ip), vehicle: saline 115 % of control

CCOC(=O)CCC(NC(=O)Cc1ccc(NC(=O)C(F)(F)F)cc1)C(=O)OCC (stereo not drawn)
inactive: dose: 100.0 mg/kg/injection, schedule: Q01DX009 (ip), vehicle: Klucel (hydroxypropylcellulose) (HPC) 100 % of control | dose: 200.0 mg/kg/injection, schedule: Q01DX009 (ip), vehicle: Klucel (hydroxypropylcellulose) (HPC) 95 % of control | dose: 400.0 mg/kg/injection, schedule: Q01DX009 (ip), vehicle: Klucel (hydroxypropylcellulose) (HPC) 104 % of control

Nc1nc2nc(-c3ccccc3)nc(N)c2nc1Sc1ccc(Cl)cc1
inactive: [2] 94 % of control | [3] 103 % of control | [4] 103 % of control

CC(C)CNS(=O)(=O)c1ncnc2nc[nH]c12
inactive: [5] 109 % of control | [6] 109 % of control

CCC(=O)Nc1cccc(Cl)c1
inactive: dose: 100.0 mg/kg/injection, schedule: Q01DX001 (ip), vehicle: saline with Tween-80 109 % of control | dose: 200.0 mg/kg/injection, schedule: Q01DX001 (ip), vehicle: saline with Tween-80 109 % of control | dose: 400.0 mg/kg/injection, schedule: Q01DX001 (ip), vehicle: saline with Tween-80 90 % of control

NCC(=O)Nc1ccc(O)cc1
inactive: dose: 79.0 mg/kg/injection, schedule: Q04DX003 (ip), vehicle: saline with Tween-80 100 % of control | dose: 118.0 mg/kg/injection, schedule: Q04DX003 (ip), vehicle: saline with Tween-80 104 % of control | dose: 176.0 mg/kg/injection, schedule: Q04DX003 (ip), vehicle: saline with Tween-80 100 % of control | [7] 118 % of control | dose: 600.0 mg/kg/injection, schedule: Q01DX009 (ip), vehicle: saline with Tween-80 90 % of control

CNC(CNC(CO)CC(C)C)Cc1ccc(OCc2ccccc2)cc1 (stereo not drawn)
inactive: [8] 104 % of control | [9] 100 % of control

ClC1OC(Cl)C(Cl)OC1Cl (stereo not drawn)
inactive: [10] 105 % of control | [11] 110 % of control

O=C(CSc1ncnc2nc[nH]c12)c1ccccc1
inactive: [6] 104 % of control | [2] 86 % of control | [12] 104 % of control | [3] 100 % of control | [7] 100 % of control | [4] 91 % of control

C=CC(C)C(C)(OCc1ccccc1)C(=O)O (stereo not drawn)
inactive: [13] 100 % of control | [14] 113 % of control | [15] 106 % of control

O=c1cc(O)ccn1CC(O)c1ccc(Cl)s1 (stereo not drawn)
inactive: [6] 101 % of control and 111 % of control | [2] 109 % of control | [12] 92 % of control and 104 % of control | [3] 110 % of control | [7] 108 % of control and 113 % of control | [4] 119 % of control

COC(=O)c1cc(C)c(Br)c(OC)c1
inactive: dose: 12.0 mg/kg/injection, schedule: Q01DX009 (ip), vehicle: Klucel (hydroxypropylcellulose) (HPC) 95 % of control | [16] 90 % of control | dose: 50.0 mg/kg/injection, schedule: Q01DX009 (ip), vehicle: Klucel (hydroxypropylcellulose) (HPC) 90 % of control

O=[N+]([O-])OCc1c(Cl)nc(Cl)c(Cl)c1Cl
inactive: dose: 25.0 mg/kg/injection, schedule: Q01DX009 (ip), vehicle: saline with Tween-80 115 % of control | [17] 95 % of control | [5] 110 % of control | [1] 100 % of control | [2] 108 % of control

OC(Cc1cccnc1)(c1ccccc1)c1ccc(Cl)cc1 (stereo not drawn)
inactive: [5] 105 % of control | [6] 100 % of control | [12] 96 % of control

CC(=O)OCC(=O)[C@@]12OC(C)(C)O[C@@H]1C[C@H]1[C@@H]3CC(C=O)=C4C=C(OCCCl)CC[C@]4(C)[C@@]3(F)[C@@H](O)C[C@@]12C
inactive: dose: 0.39 mg/kg/injection, schedule: Q01DX009 (ip), vehicle: Klucel (hydroxypropylcellulose) (HPC) 95 % of control | dose: 0.78 mg/kg/injection, schedule: Q01DX009 (ip), vehicle: Klucel (hydroxypropylcellulose) (HPC) 107 % of control and 113 % of control | dose: 1.56 mg/kg/injection, schedule: Q01DX009 (ip), vehicle: Klucel (hydroxypropylcellulose) (HPC) 106 % of control and 113 % of control | dose: 2.3 mg/kg/injection, schedule: Q04DX003 (ip), vehicle: Klucel (hydroxypropylcellulose) (HPC) 104 % of control | [18] 100 % of control | dose: 3.13 mg/kg/injection, schedule: Q01DX009 (ip), vehicle: Klucel (hydroxypropylcellulose) (HPC) 105 % of control | dose: 4.6 mg/kg/injection, schedule: Q04DX003 (ip), vehicle: Klucel (hydroxypropylcellulose) (HPC) 109 % of control | [10] 122 % of control | dose: 9.3 mg/kg/injection, schedule: Q04DX003 (ip), vehicle: Klucel (hydroxypropylcellulose) (HPC) 100 % of control | [11] 124 % of control | dose: 13.0 mg/kg/injection, schedule: Q04DX003 (ip), vehicle: Klucel (hydroxypropylcellulose) (HPC) 115 % of control | [17] 115 % of control | dose: 30.0 mg/kg/injection, schedule: Q04DX003 (ip), vehicle: Klucel (hydroxypropylcellulose) (HPC) 115 % of control | dose: 45.0 mg/kg/injection, schedule: Q04DX003 (ip), vehicle: Klucel (hydroxypropylcellulose) (HPC) 104 % of control | [1] 114 % of control | dose: 70.0 mg/kg/injection, schedule: Q04DX003 (ip), vehicle: Klucel (hydroxypropylcellulose) (HPC) 108 % of control | [2] 124 % of control | dose: 105.0 mg/kg/injection, schedule: Q04DX003 (ip), vehicle: Klucel (hydroxypropylcellulose) (HPC) 113 % of control | [3] 118 % of control | [4] 100 % of control

CCCCCCC(C)NCC(O)COc1cccc(C)c1 (stereo not drawn)
inactive: [18] 113 % of control | [11] 116 % of control | [16] 120 % of control

COC(=O)C1C2C(C)CC3(CC12C)OCCO3 (stereo not drawn)
inactive: [2] 90 % of control | [3] 109 % of control | [4] 100 % of control

Cc1cccc(C)c1NC(=O)c1ccccc1Cl
inactive: [2] 113 % of control | [3] 109 % of control | [4] 104 % of control

O=[N+]([O-])[O-].OCCNCCNCC[OH2+].OCCNCCNCC[OH2+].[Cu+2]
inactive: dose: 6.25 mg/kg/injection, schedule: Q01DX009 (ip), vehicle: saline 97 % of control | [8] 100 % of control | [9] 88 % of control

O=c1oc(-c2ccc(C[n+]3ccc4ccccc4c3)cc2)nc2ccccc12
inactive: [13] 100 % of control | [14] 99 % of control | [15] 104 % of control
